Measured values from patent US20170022171A1, “2,5-DISUBSTITUTED CYCLOPENTANECARBOXYLIC ACIDS AND THEIR USE” (Bayer Pharma Aktiengesellschaft, priority 2014, published 2017).

Key:
Format in all cases: biochemical
MMP-16 = molecular target: T1, MMP-16 (Homo sapiens, UniProt P51512); assay: In vitro MMP-16 inhibition test
T1 construct: purchased R&D Systems 1785-MP
Method in brief: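 Furin-activated recombinant MMP-16 (e.g. 1 nM) in 50 mM Tris/HCl pH 7.5, 10 mM CaCl2, 150 mM NaCl and 0.05% Brij-35 received compound in DMSO (e.g. 1 nM–30 μM), then 5 μM Mca-Lys-Pro-Leu-Gly-Leu-Dpa(Dnp)-Ala-Arg-NH2. Fluorescence (ex 320/em 410 nm) was followed, e.g. over 120 min at 32 °C. IC50 is the concentration halving the signal.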

MMP-8 = molecular target: T2, MMP-8 (Homo sapiens, UniProt P22894); assay: In vitro MMP-8 inhibition test
T2 construct: purchased R&D Systems 908-MP
T2 sequence (P22894 101-467): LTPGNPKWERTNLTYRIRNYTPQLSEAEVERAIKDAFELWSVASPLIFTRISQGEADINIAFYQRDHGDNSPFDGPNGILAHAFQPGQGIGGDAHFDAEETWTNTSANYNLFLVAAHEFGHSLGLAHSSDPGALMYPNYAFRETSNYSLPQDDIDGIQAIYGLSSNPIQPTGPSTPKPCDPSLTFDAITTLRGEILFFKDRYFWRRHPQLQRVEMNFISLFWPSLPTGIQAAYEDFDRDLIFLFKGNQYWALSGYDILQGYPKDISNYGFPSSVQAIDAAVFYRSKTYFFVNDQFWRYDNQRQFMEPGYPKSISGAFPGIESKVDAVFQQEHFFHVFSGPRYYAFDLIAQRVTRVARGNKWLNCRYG
Method in brief: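 APMA-activated recombinant MMP-8 (final e.g. 0.5 nM) preincubated with compound in DMSO (e.g. 1 nM–30 μM) in 50 mM Tris/HCl pH 7.5, 10 mM CaCl2, 150 mM NaCl, 0.05% Brij-35. Reaction started with quenched Mca-Pro-Leu-Gly-Leu-Dpa(Dnp)-Ala-Arg-NH2 substrate (e.g. 10 μM); fluorescence (ex 320/em 410 nm) followed e.g. 120 min at 32° C; IC50 at 50% signal.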

MMP-3 = molecular target: T3, MMP-3 (Homo sapiens, UniProt P08254); assay: In vitro MMP-3 inhibition test
T3 construct: purchased R&D Systems 513-MP
T3 sequence (P08254 100-477): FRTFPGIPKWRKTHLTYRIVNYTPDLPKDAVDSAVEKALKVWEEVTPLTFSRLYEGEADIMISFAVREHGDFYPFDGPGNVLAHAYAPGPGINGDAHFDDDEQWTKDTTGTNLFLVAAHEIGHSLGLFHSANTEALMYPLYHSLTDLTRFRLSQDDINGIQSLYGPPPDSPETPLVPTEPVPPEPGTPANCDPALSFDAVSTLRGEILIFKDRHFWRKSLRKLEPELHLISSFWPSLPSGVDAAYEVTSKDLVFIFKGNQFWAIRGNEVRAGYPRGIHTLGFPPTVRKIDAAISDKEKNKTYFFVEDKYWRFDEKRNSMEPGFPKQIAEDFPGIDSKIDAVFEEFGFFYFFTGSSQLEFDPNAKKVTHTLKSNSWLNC
Method in brief: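 APMA-activated recombinant MMP-3 (e.g. 2 nM final) preincubated with compound in 50 mM Tris/HCl pH 7.5, 10 mM CaCl2, 150 mM NaCl, 0.05% Brij-35; quenched Mca/Dnp peptide substrate (e.g. 10 μM) started the reaction. Fluorescence (ex 320/em 410 nm) followed e.g. 120 min at 32° C; IC50 at 50% signal.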

MMP-13 = molecular target: T4, MMP-13 (Homo sapiens, UniProt P45452); assay: In vitro MMP-13 inhibition test
T4 construct: purchased R&D Systems 511-MP
Method in brief: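 APMA-activated recombinant MMP-13 (e.g. 0.1 nM final) in 50 mM Tris/HCl pH 7.5, 10 mM CaCl2, 150 mM NaCl, 0.05% Brij-35 with Mca-PLGL-Dpa(Dnp)-AR-NH2 substrate (e.g. 10 μM final). Fluorescence (ex 320/em 410 nm) followed e.g. 120 min at 32 °C; IC50 at 50% signal.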

MMP-14 = molecular target: T5, MMP-14 (Homo sapiens, UniProt P50281); assay: In vitro MMP-14 inhibition test
T5 construct: purchased R&D Systems 918-MP
Method in brief: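 Furin-activated recombinant MMP-14 (e.g. 0.5 nM final) with compound in Tris pH 7.5, CaCl2, NaCl, Brij-35 buffer; Mca/Dnp quenched peptide substrate, e.g. 5 μM final. Fluorescence (ex 320/em 410 nm) followed e.g. 120 min at 32 °C; IC50 at half-maximal signal.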

T1 sequence (P51512 120-564 limits assumed): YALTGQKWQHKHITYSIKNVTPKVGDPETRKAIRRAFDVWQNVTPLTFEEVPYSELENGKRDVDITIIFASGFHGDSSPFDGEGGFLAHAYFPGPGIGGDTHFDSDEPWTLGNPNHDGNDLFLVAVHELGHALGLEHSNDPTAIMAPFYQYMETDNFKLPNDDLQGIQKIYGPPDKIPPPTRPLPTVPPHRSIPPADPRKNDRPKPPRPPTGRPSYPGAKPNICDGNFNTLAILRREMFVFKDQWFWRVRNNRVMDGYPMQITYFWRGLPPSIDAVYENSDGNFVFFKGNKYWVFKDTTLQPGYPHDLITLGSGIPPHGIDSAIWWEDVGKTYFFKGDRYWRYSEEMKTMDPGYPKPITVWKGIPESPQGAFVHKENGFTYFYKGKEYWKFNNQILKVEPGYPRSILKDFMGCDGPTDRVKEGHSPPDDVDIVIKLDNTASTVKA

Row | Compound | IC50 (MMP-16) [nM] | IC50 (MMP-8) [nM] | IC50 (MMP-3) [nM] | IC50 (MMP-13) [nM] | IC50 (MMP-14) [nM]
1 | O=C(O)[C@@H]1[C@@H](Cn2nnc3ccc(C(F)(F)F)cc3c2=O)CC[C@H]1C(=O)c1ccc(SCc2cccc(Cl)c2)cc1 (single isomer, unassigned) [Example 77, (+)-(1RS,2RS,5SR)-2-{4-[(3-Chlorobenzyl)sulphanyl]benzoyl}-5-{[4-oxo-6-(trifluoromethyl)-1,2,3-benzotriazin-3(4H)-yl]methyl}cyclopentanecarboxylic acid] | 3800 | 41 | 100 | 770 | 1200
2 | O=C(O)[C@@H]1[C@@H](Cn2nnc3ccc(C(F)(F)F)cc3c2=O)CC[C@H]1C(=O)c1ccc(SCc2ccc(Cl)c(Cl)c2)cc1 (single isomer, unassigned) [Example 80, (+)-(1RS,2RS,5SR)-2-{4-[(3,4-Dichlorobenzyl)sulphanyl]benzoyl}-5-{[4-oxo-6-(trifluoromethyl)-1,2,3-benzotriazin-3(4H)-yl]methyl}cyclopentanecarboxylic acid] | 5500 | 52 | 150 | 840 | 2600
3 | Cc1ccc2nnn(C[C@H]3CC[C@@H](C(=O)c4ccc(OCc5ccccc5)cc4)[C@@H]3C(=O)O)c(=O)c2c1 (single isomer, unassigned) [Example 92, (+)-(1RS,2RS,5SR)-2-[4-(Benzyloxy)benzoyl]-5-[(6-methyl-4-oxo-1,2,3-benzotriazin-3(4H)-yl)methyl]cyclopentanecarboxylic acid] | 110 | 2.4 | 150 | 27 | 33
4 | Cc1cccc(COc2ccc(C(=O)[C@@H]3CC[C@H](Cn4nnc5ccc(C)cc5c4=O)[C@H]3C(=O)O)cc2)c1 (single isomer, unassigned) [Example 98, (+)-(1RS,2RS,5SR)-2-{4-[(3-Methylbenzyl)oxy]benzoyl}-5-[(6-methyl-4-oxo-1,2,3-benzotriazin-3(4H)-yl)methyl]cyclopentanecarboxylic acid] | 670 | 64 | 680 | 410 | 210
5 | Cc1ccc2nnn(C[C@H]3CC[C@@H](C(=O)c4ccc(OCc5cccc(C(F)(F)F)c5)cc4)[C@@H]3C(=O)O)c(=O)c2c1 (single isomer, unassigned) [Example 101, (+)-(1RS,2SR,5RS)-2-[(6-Methyl-4-oxo-1,2,3-benzotriazin-3(4H)-yl)methyl]-5-(4-{[3-(trifluoromethyl)benzyl]oxy}benzoyl)cyclopentanecarboxylic acid] | 880 | 29 | 880 | 210 | 380
6 | Cc1ccc2nnn(C[C@H]3CC[C@@H](C(=O)c4ccc(OCc5cccc(Cl)c5)cc4)[C@@H]3C(=O)O)c(=O)c2c1 (single isomer, unassigned) [Example 104, (+)-(1RS,2RS,5SR)-2-{4-[(3-Chlorobenzyl)oxy]benzoyl}-5-[(6-methyl-4-oxo-1,2,3-benzotriazin-3(4H)-yl)methyl]cyclopentanecarboxylic acid] | 540 | 31 | 260 | 200 | 230
7 | COc1cccc(COc2ccc(C(=O)[C@@H]3CC[C@H](Cn4nnc5ccc(C)cc5c4=O)[C@H]3C(=O)O)cc2)c1 (single isomer, unassigned) [Example 107, (+)-(1RS,2RS,5SR)-2-{4-[(3-Methoxybenzyl)oxy]benzoyl}-5-[(6-methyl-4-oxo-1,2,3-benzotriazin-3(4H)-yl)methyl]cyclopentanecarboxylic acid] | 650 | 19 | 730 | 150 | 290
8 | Cc1ccc2nnn(C[C@H]3CC[C@@H](C(=O)c4ccc(OCc5cccc(OC(F)(F)F)c5)cc4)[C@@H]3C(=O)O)c(=O)c2c1 (single isomer, unassigned) [Example 110, (+)-(1RS,2SR,5RS)-2-[(6-Methyl-4-oxo-1,2,3-benzotriazin-3(4H)-yl)methyl]-5-(4-{[3-(trifluoromethoxy)benzyl]oxy}benzoyl)cyclopentanecarboxylic acid] | 2100 | 120 | 920 | 260 | 720
9 | Cc1ccc2nnn(C[C@H]3CC[C@@H](C(=O)c4ccc(OCC5CCCCC5)cc4)[C@@H]3C(=O)O)c(=O)c2c1 (single isomer, unassigned) [Example 117, (+)-(1RS,2RS,5SR)-2-[4-(Cyclohexylmethoxy)benzoyl]-5-[(6-methyl-4-oxo-1,2,3-benzotriazin-3(4H)-yl)methyl]cyclopentanecarboxylic acid] | 260 | 4 | 110 | 74 | 88
10 | CCCCCCOc1ccc(C(=O)[C@@H]2CC[C@H](Cn3nnc4ccc(C)cc4c3=O)[C@H]2C(=O)O)cc1 (single isomer, unassigned) [Example 121, (+)-(1RS,2RS,5SR)-2-[4-(Hexyloxy)benzoyl]-5-[(6-methyl-4-oxo-1,2,3-benzotriazin-3(4H)-yl)methyl]cyclopentanecarboxylic acid] | 1900 | 18 | 410 | 300 | 820
11 | COC(=O)Nc1cccc(COc2ccc(C(=O)[C@@H]3CC[C@H](Cn4nnc5ccc(C(F)(F)F)cc5c4=O)[C@H]3C(=O)O)cc2)c1 (stereo in doubt) [Example 31, (+)-(1RS,2RS,5SR)-2-[4-({3-[(Methoxycarbonyl)amino]benzyl}oxy)benzoyl]-5-{[4-oxo-6-(trifluoromethyl)-1,2,3-benzotriazin-3(4H)-yl]methyl}cyclopentanecarboxylic acid] | 890 | 9.1 | 280 | 190 | 400
12 | (+)-(1RS,2RS,5SR)-2-{4-[(3,4-Dichlorobenzyl)oxy]benzoyl}-5-{[4-oxo-6-(trifluoromethyl)-1,2,3-benzotriazin-3(4H)-yl]methyl}cyclopentanecarboxylic acid [Example 28] | 2200 | 43 | 250 | 620 | 1900
13 | (+)-(1RS,2RS,5SR)-2-{4-[Cyclohexyl)methyl)sulphanyl]benzoyl}-5-{[4-oxo-6-(trifluoromethyl)-1,2,3-benzotriazin-3(4H)-yl]methyl}cyclopentanecarboxylic acid [Example 86] | 14000 | 150 | 1300 | 6600 | 3900
14 | (+)-(1RS,2SR,5RS)-2-{[4-Oxo-6-(trifluoromethyl)-1,2,3-benzotriazin-3(4H)-yl]methyl}-5-{4-[(2-phenylethy)sulphanyl]benzoyl}cyclopentanecarboxylic acid [Example 83] | > 40000 | 260 | 450 | 2800 | 3900
